{
  "source": "patent US6562855B1",
  "about": "“Anaesthetic formulation comprising an NMDA-antagoinst and an alpha-2 adrenergic agonist” (priority 1999, dated 2003)",
  "key": {"Male Sprague-Dawley rats [1]": {"test_system": "Male Sprague-Dawley rats", "conditions": "previously demonstrated (Guo T Z et al); cited from earlier work"}, "Male Sprague-Dawley rats [2]": {"test_system": "Male Sprague-Dawley rats", "experiment": "Loss of righting reflex (sleep-time), hypnotic response to dexmedetomidine", "type": "in vivo, rat", "conditions": "for effect of co-administration on development of tolerance to the hypnotic effect of dexmedetomidine: MK-801 100 and 400 μg/kg/hr co-administered with dexmedetomidine, challenge 100 μg/kg i.p., pumps removed 1 day prior to testing (FIG. 2C); for effect of co-administration on induction of tolerance to the hypnotic effect of dexmedetomidine: NO2-arginine 0.4-4 μg/kg/hr with dexmedetomidine 5 μg/kg/hr for 7 days (FIG. 5C)", "protocol": "(§1) The experimental protocol was approved by the Animal Care and Use Committee of the Veterans Affairs Palo Alto Health Care System. Male Sprague-Dawley rats, (B&K, Fremont, Calif.) weighing 250-350 g were used. The rats were stratified to match the distribution of the weights in the groups as closely as possible. All tests were performed between 10 a.m. and 4 p.m. The number of animals for each experiment is listed in the legends.\n(§2) Rats were made tolerant to the anesthetic action of an alpha-2 agonist, dexmedetomidine, as described by Reid K et al (ibid). Briefly, rats were administered dexmedetomidine chronically using Alzet® osmotic minipumps (Model 2002 or 1007D, Alza, Palo Alto Calif.), which discharge their contents at a mean pumping rate of 0.48±0.02 μl/h. The pumps were inserted subcutaneously during isoflurane anesthesia in the dorsal thoracic region and loaded to deliver 5 μg/kg/h for 7 days to induce hypnotic tolerance and 10 μg/kg/h for 14 days to induce analgesic tolerance. […] When MK-801 or Nω-nitro-L-arginine (NO2-arginine) was co-administered with dexmedetomidine the MK-801 was included in the same pump. […] For the MK-801 and Nω-nitro-L-arginine (NO2-arginine) hypnotic experiments the pumps were removed one day prior to behavioral testing. In all other experiments the pumps were not removed prior to testing.\nHypnotic response to dexmedetomidine, was defined by the loss of the rat's righting reflex (LORR), and its duration was measured in minutes and referred to as sleep-time. The duration of the LORR was assessed as the time from the rat's inability to right itself when placed on its back until the time that it spontaneously reverted, completely, to the prone position. The hypnotic response test was performed between 10 a.m. and 6 p.m. as described in Reid et al, 1994.\n(§3) The NOS inhibitor Nω-nitro-L-arginine (NO2-arginine) (Sigma) and the NMDA antagonists MK-801 (RBI) and ketamine (Sigma) were diluted in normal saline and acutely administered intraperitoneally or administered chronically by means of Alzet® osmotic minipumps (Model 2002 or 1007D, Alza, Palo Alto Calif.). These compounds were co-administered with dexmedetomidine by including both drugs in one pump.\n(§4) LORR and tail flick data was analyzed using the analysis of variance (ANOVA) followed by post hoc Bonferroni tests or Dunnett's multiple comparison test or t-test where appropriate."}, "Male Sprague-Dawley rats [3]": {"test_system": "Male Sprague-Dawley rats", "experiment": "Tail flick response to a noxious thermal stimulus (analgesic action of dexmedetomidine)", "type": "in vivo, rat", "conditions": "for effect of acute administration on the analgesic action of dexmedetomidine: tail flick 40 min later", "protocol": "as §1, §2\nNociceptive response was assessed by the tail flick response to a noxious thermal stimulus 40 minutes after the administration of the dexmedetomidine challenge dose. A high intensity light beam focused on the tail and the time for the rat to move its tail out of the light was recorded as tail flick latency. This method has been described previously in the literature (Guo T Z et al, ibid). The latencies from three sites on the tail were averaged. A cut-off time of 10 sec was predetermined to prevent tissue damage. Baseline measurements consist of a set of three tail flick determinations at 2 min intervals.\nas §3, §4"}, "NMDA receptor": {"test_system": "NMDA receptor", "conditions": "80% xenon; cultured hippocampal neurons; cited from earlier work"}, "[4]": {"conditions": "20° C. and normal pressure; cited from earlier work"}, "[5]": {"conditions": "chronic exposure to dexmedetomidine for 14 days (10 μg/kg/h) (FIG. 1B)"}},
  "note": "“Also recorded” adds a separate entry of the source.",
  "data": [
    {"smiles": "Cc1cccc([C@H](C)c2cnc[nH]2)c1C", "note": "[dexmedetomidine]", "values": [
      {"measurement": "dose of maximal efficacy of hypnotic action (biphasic dose response curve)", "setting": "Male Sprague-Dawley rats [1]", "result": "around 300 μg/kg"},
      {"measurement": "hypnotic effect of dexmedetomidine (duration of loss of righting reflex), dose response", "setting": "Male Sprague-Dawley rats [2]; rats chronically treated with dexmedetomidine 5 μg/kg/h for 7 days, even when large doses were given (FIG. 1A)", "result": "almost completely absent"},
      {"measurement": "hypnotic effect of dexmedetomidine (duration of loss of righting reflex), dose response", "setting": "Male Sprague-Dawley rats [2]; sham treated animals, challenge doses (FIG. 1A)", "result": "dose dependently increased"},
      {"measurement": "maximal analgesic effect of dexmedetomidine", "setting": "Male Sprague-Dawley rats [3]; [5]", "result": "reduced the maximal effect"},
      {"measurement": "shift of the analgesic dose response curve for dexmedetomidine", "setting": "Male Sprague-Dawley rats [3]; [5]", "result": "about 2 fold"}
    ]},
    {"smiles": "CNC1(c2ccccc2Cl)CCCCC1=O", "note": "(stereo not shown) [ketamine]", "values": [
      {"measurement": "effect on dexmedetomidine sedation when administered alone", "setting": "Male Sprague-Dawley rats [2]; ketamine 400 μg/kg/hr alone (FIG. 3C)", "result": "without having an effect on dexmedetomidine sedation; also recorded: had no effect by itself"},
      {"measurement": "effect of co-administration on tolerance to the hypnotic (sedative) effect of dexmedetomidine", "setting": "Male Sprague-Dawley rats [2]; ketamine 400 μg/kg/hr concurrently with dexmedetomidine, challenge 150 μg/kg i.p., pumps left in place (FIG. 3C)", "result": "reverses tolerance; also recorded: did reverse tolerance"},
      {"measurement": "effect of acute administration on established tolerance to the hypnotic effect of dexmedetomidine", "setting": "Male Sprague-Dawley rats [2]; ketamine 10 or 20 mg/kg acute, tolerant rats (FIG. 3B)", "result": "does not block dexmedetomidine-induced tolerance; also recorded: could not reverse tolerance"},
      {"measurement": "effect of acute administration on dexmedetomidine-induced sleep time", "setting": "Male Sprague-Dawley rats [2]; ketamine acute, dexmedetomidine 150 μg/kg i.p. (FIG. 3A)", "result": "has no effect on the sleep time"},
      {"measurement": "effect of acute administration on dexmedetomidine-induced sleep time", "setting": "Male Sprague-Dawley rats [2]; ketamine acute, dexmedetomidine 150 μg/kg i.p. (FIG. 3A), listed as Ketamine", "result": "did not affect the sleep time"}
    ]},
    {"smiles": "[Xe]", "note": "[xenon]", "values": [
      {"measurement": "reduction of NMDA-activated currents", "setting": "NMDA receptor", "result": "up to 60%"},
      {"measurement": "concentration of xenon dissolved or dispersed in lipid emulsion", "setting": "[4]", "result": "0.2 to 10 ml per ml of emulsion"}
    ]},
    {"smiles": "C[C@]12N[C@H](Cc3ccccc31)c1ccccc12", "note": "[MK-801]", "values": [
      {"measurement": "effect on dexmedetomidine-induced sleep time", "setting": "Male Sprague-Dawley rats [2]; MK-801 50 μg/kg acute", "result": "has no effect on dexmedetomidine-induced sleep time"},
      {"measurement": "effect of acute administration on dexmedetomidine-induced sleep time", "setting": "Male Sprague-Dawley rats [2]; MK-801 10-200 μg/kg, naïve animals, dexmedetomidine 100 μg/kg i.p. (FIG. 2A)", "result": "did not affect sleep time"},
      {"measurement": "effect of co-administration on development of tolerance to the hypnotic effect of dexmedetomidine", "setting": "Male Sprague-Dawley rats [2]", "result": "blocks tolerance; also recorded: able to prevent the development of tolerance"},
      {"measurement": "effect of co-administration on development of tolerance to the hypnotic effect of dexmedetomidine", "setting": "Male Sprague-Dawley rats [2]; listed as dizolcipine", "result": "blocked"},
      {"measurement": "effect of acute administration on expression of tolerance to the hypnotic effect of dexmedetomidine", "setting": "Male Sprague-Dawley rats [2]; MK-801 acute, rats already tolerant (dexmedetomidine 5 μg/kg/h, 7 days) (FIG. 2B)", "result": "does not block dexmedetomidine-induced tolerance; also recorded: did not affect the expression of tolerance"},
      {"measurement": "effect of acute administration on expression of tolerance to the hypnotic effect of dexmedetomidine", "setting": "Male Sprague-Dawley rats [2]; MK-801 acute, rats already tolerant (dexmedetomidine 5 μg/kg/h, 7 days) (FIG. 2B), listed as dizolcipine", "result": "does not prevent the expression of tolerance"},
      {"measurement": "effect of acute low dose on expression of tolerance to the analgesic effect of dexmedetomidine", "setting": "Male Sprague-Dawley rats [3]; MK-801 50 μg/kg acute, rats tolerant after dexmedetomidine 10 μg/kg/hr for 14 days (FIG. 4B)", "result": "does not prevent the expression of tolerance; also recorded: did not reverse the expression of tolerance"},
      {"measurement": "effect of higher dose on the analgesic action of dexmedetomidine", "setting": "Male Sprague-Dawley rats [3]; MK-801 400 μg/kg acute, control animals", "result": "antagonized the analgesic action of dexmedetomidine"},
      {"measurement": "effect of acute higher dose on tolerance to the analgesic effect of dexmedetomidine", "setting": "Male Sprague-Dawley rats [3]; MK-801 400 μg/kg acute, tolerant animals", "result": "unable to reverse tolerance"},
      {"measurement": "effect of acute administration on the analgesic action of dexmedetomidine", "setting": "Male Sprague-Dawley rats [3]; MK-801 15 min before dexmedetomidine 50 μg/kg, naive rats (FIG. 4A)", "result": "suppressed its analgesic action at the two highest doses"},
      {"measurement": "effect of co-administration on development of analgesic tolerance to dexmedetomidine", "setting": "Male Sprague-Dawley rats [3]; MK-801 (0.4 μg/kg/hr as printed; maximum dose tolerated by the rat) with dexmedetomidine 10 μg/kg/hr for 14 days (FIG. 4C)", "result": "does not prevent the development of tolerance; also recorded: had no effect on the development of analgesic tolerance"},
      {"measurement": "effect of low dose on dexmedetomidine-induced analgesia", "setting": "Male Sprague-Dawley rats [3]; low dose of MK-801 (50 μg/kg) acute, control animals (FIG. 4B)", "result": "did not have any affect on dexmedetomidine-induced analgesia"},
      {"measurement": "effect on tail flick latency / dexmedetomidine's analgesic action when administered alone", "setting": "Male Sprague-Dawley rats [3]; same chronic dose of MK-801 alone (FIG. 4C)", "result": "does not affect dexmedetomidine's analgesic action; also recorded: had no effect on tail flick latency"}
    ]},
    {"smiles": "N=C(NCCC[C@H](N)C(=O)O)N[N+](=O)[O-]", "note": "[NO2-arginine, Nω-nitro-L-arginine]", "values": [
      {"measurement": "effect of co-administration on induction of tolerance to the hypnotic effect of dexmedetomidine", "setting": "Male Sprague-Dawley rats [2]", "result": "dose-dependently blocks the development of tolerance; also recorded: attenuated"},
      {"measurement": "effect of co-administration on induction of tolerance to the hypnotic effect of dexmedetomidine", "setting": "Male Sprague-Dawley rats [2]; listed as NO2-Arginine", "result": "blocked"},
      {"measurement": "effect of acute administration on dexmedetomidine-induced sleep time", "setting": "Male Sprague-Dawley rats [2]; NO2-arginine 15 min prior to dexmedetomidine 100 μg/kg i.p., drug naive rats (FIG. 5A)", "result": "dependently increases the dexmedetomidine-induced sleep time; also recorded: increased sleep time only at high doses"},
      {"measurement": "effect of acute administration on expression of tolerance to the hypnotic effect of dexmedetomidine", "setting": "Male Sprague-Dawley rats [2]; low doses of NO2-arginine acute, after 7-day dexmedetomidine, challenge 100 μg/kg (FIG. 5B)", "result": "does not reverse the tolerance; also recorded: did not reverse its expression"},
      {"measurement": "effect of acute administration on expression of tolerance to the hypnotic effect of dexmedetomidine", "setting": "Male Sprague-Dawley rats [2]; low doses of NO2-arginine acute, after 7-day dexmedetomidine, challenge 100 μg/kg (FIG. 5B), listed as NO2-Arginine", "result": "does not prevent the expression of tolerance"},
      {"measurement": "effect on dexmedetomidine-induced sleep time when given alone", "setting": "Male Sprague-Dawley rats [2]; treatment with just NO2-arginine 1.25 μg/kg/hr (FIG. 5C, last column)", "result": "does not affect the dexmedetomidine-induced sleep time; also recorded: did not affect the dexmedetomidine sleep time"},
      {"measurement": "effect on dexmedetomidine-induced analgesia in control animals", "setting": "Male Sprague-Dawley rats [3]; NO2-arginine 4 μg/kg/hr (FIG. 6C)", "result": "had no effect on dexmedetomidine-induced analgesia in control animals"},
      {"measurement": "effect on tail flick latency when administered alone", "setting": "Male Sprague-Dawley rats [3]; NO2-arginine 4 μg/kg/hr alone (data not shown)", "result": "had no effect on tail flick latency"},
      {"measurement": "effect of co-administration on analgesic tolerance to dexmedetomidine", "setting": "Male Sprague-Dawley rats [3]; NO2-arginine 4 μg/kg/hr with dexmedetomidine 10 μg/kg/hr for 14 days (FIG. 6C)", "result": "has no effect on analgesic tolerance; also recorded: had no effect on analgesic tolerance"},
      {"measurement": "effect of co-administration on analgesic tolerance to dexmedetomidine", "setting": "Male Sprague-Dawley rats [3]; NO2-arginine 8 μg/kg/hr with dexmedetomidine 10 μg/kg/hr for 14 days (FIG. 6C)", "result": "also ineffective; also recorded: ineffective at reversing tolerance"},
      {"measurement": "effect of acute administration on expression of tolerance to the analgesic action of dexmedetomidine", "setting": "Male Sprague-Dawley rats [3]; NO2-arginine 1 and 20 mg/kg i.p., dexmedetomidine 100 μg/kg i.p., tolerant rats (FIG. 6B)", "result": "does not reverse dexmedetomidine tolerance; also recorded: did not reverse the expression of tolerance"},
      {"measurement": "effect of acute administration on the analgesic action of dexmedetomidine", "setting": "Male Sprague-Dawley rats [3]; NO2-arginine i.p. 15 min prior to dexmedetomidine 50 μg/kg i.p., naïve rats (FIG. 6A)", "result": "has no effect on the analgesic action of dexmedetomidine; also recorded: did not affect the analgesic action of dexmedetomidine"}
    ]}
  ]
}
